Where “and” joins values, the source holds several entries; their conditions need not be identical. Equal entries are not always repeated. Residues, ends and D or L forms follow the SMILES beside them. *: point of attachment. Cbz = O=C(OCc1ccccc1)*; OtBu = CC(C)(C)O*
Columns and labels:
C57BL/6 mice = test: Capsaicin-induced thermal hypersensitivity (Hargreaves); assay type: in vivo, mouse
Description: FGF13 is a neuronal gene ubiquitously transcribed in DRG neuronal subtypes ([43]–[46]). To investigate neuronal subtype enrichment of the FGF13 transcript, we examined a gene panel including FGF13, SCN9A, and several marker genes in mouse single-cell transcriptomic data (Supplemental Figure 10) ([43]–[46]). […] Critically, putative silent nociceptors marked by somatostatin (SST), and the nicotinic cholinergic receptor α-3 subunit (CHRNA3) contribute to development of inflammatory mechanical hyperalgesia ([47]). […] We next determined if PW164 modulation of the FGF13/Nav1.7 complex could suppress nociceptive behaviors in WT mice. We tested whether intraplantar (i.pl.) injection (5 μL) of PW164 altered hind paw withdrawal in response to low or high intensity von Frey filament (LVF or HVF, respectively) mechanical stimulation (Figure 3A). […] Next, we evaluated PW164’s effect on mechanical and thermal hindpaw sensitivity in capsaicin-induced nociceptive hypersensitivity models. […] Next, we performed in vivo target validation in WT mice that received an intrathecal (i.t.) injection in L5 of AAV2-shFGF13 (6 μL, viral titers 1 × 10^12 vector genomes (vg)/mL); a control group received an equal number of AAV2-shCTRL particles (Figure 3C).
Experiments were performed on 6- to 12-week-old male C57BL/6 mice (The Jackson Laboratory, Bar Harbor, ME) housed in the AAALAC-accredited facility at the University of Texas Medical Branch. Mice were group-housed with up to 5 mice per cage on a 12-to-12-hour light–dark cycle and had access to water and food ad libitum. All protocols were approved by the Institutional Animal Care and Use Committee (IACUC) at the University of Texas Medical Branch and in accordance with the National Institutes of Health (NIH) guidelines.
PW164 and ZL192 were dissolved in DMSO and saline in a ratio of 1:10. 0.1% capsaicin (10% ethanol, 10% Tween-20 in saline; Sigma-Aldrich). All the compounds were injected at the center of the hind paw. The control group received a DMSO-saline mixture. […]
AAV2 viral particles packaged by the University of North Carolina Gene Therapy Core Facility (viral titer ranging […]
Before intrathecal injections in the lumbar region, mice were maintained in an anesthetizing box with 2% isoflurane to induce unconsciousness. Six microliters of viral vector were gently injected into the CSF through a 30-gauge needle with a Hamilton syringe in the lumbar area between vertebrae L4 and L5 by gently gripping the iliac crest of the mouse and inserting the needle with an angle of 45°. The correct procedure was confirmed by the mouse’s tail reflexiv e flick. […]

[1] = target: human ether-a-go-go-related gene (hERG) (Homo sapiens, UniProt Q12809)
human ether-a-go-go-related gene (hERG), sequence (Q12809 whole entry): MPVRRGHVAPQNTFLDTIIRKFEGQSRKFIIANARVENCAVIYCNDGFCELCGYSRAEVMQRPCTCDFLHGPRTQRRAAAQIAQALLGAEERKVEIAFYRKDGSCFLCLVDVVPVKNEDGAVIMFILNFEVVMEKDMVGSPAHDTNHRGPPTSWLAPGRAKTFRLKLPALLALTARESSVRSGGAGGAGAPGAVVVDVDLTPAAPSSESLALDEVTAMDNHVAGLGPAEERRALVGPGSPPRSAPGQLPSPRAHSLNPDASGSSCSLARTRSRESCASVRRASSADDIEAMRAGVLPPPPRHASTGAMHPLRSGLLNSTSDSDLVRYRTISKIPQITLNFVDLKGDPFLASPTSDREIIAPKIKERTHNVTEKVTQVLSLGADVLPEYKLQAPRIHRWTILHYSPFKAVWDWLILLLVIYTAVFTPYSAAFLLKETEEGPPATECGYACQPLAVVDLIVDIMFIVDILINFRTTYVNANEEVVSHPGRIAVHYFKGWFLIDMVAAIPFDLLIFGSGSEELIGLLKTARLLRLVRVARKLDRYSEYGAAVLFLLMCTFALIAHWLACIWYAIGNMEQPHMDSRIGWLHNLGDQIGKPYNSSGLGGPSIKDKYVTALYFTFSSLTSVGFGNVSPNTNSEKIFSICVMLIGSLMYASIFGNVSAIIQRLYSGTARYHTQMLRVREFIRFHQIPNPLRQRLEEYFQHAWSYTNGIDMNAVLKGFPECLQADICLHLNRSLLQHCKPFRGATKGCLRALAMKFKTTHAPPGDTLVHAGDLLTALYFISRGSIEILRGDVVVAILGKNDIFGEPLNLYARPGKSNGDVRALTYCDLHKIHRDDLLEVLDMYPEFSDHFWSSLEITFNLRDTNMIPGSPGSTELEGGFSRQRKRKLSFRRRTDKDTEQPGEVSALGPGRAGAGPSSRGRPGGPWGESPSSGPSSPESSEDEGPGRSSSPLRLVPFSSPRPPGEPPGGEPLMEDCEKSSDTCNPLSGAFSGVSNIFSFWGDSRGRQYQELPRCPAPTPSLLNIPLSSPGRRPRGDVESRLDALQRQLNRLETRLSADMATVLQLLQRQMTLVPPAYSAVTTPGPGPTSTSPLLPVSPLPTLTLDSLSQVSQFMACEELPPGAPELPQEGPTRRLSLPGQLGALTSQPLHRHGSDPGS

[2] = Blood pressure and body weight after dosing, C57BL/6 mice; conditions: for Diastolic / MAP / Systolic / Body weight, Pre-dose / Body weight, Terminal: PW164 15 mpk i.d.
[3] = 0h after dosing, individual No. 85, 87, 88, 89, 91, 15 mg/kg
[4] = 2h after dosing, individual No. 85, 87, 88, 89, 91, 15 mg/kg
[5] = 8h after dosing, individual No. 85, 87, 88, 89, 91, 15 mg/kg
[6] = individual No. 85, 87, 88, 89, 91, 15 mg/kg

## COC(=O)[C@@H](NC(=O)[C@H](CCC(=O)OC(C)(C)C)NC(=O)[C@H](CC(C)C)NC(=O)[C@@H]1CCCN1C(=O)OCc1ccccc1)C(C)C [PW164] (Cbz-PLE(OtBu)V-OMe)
C57BL/6 mice; PW164 5 μL, 0.7mg/mL hind paw
  thermal sensitivity in AAV2-shFGF13 mice after capsaicin: did not further modify
C57BL/6 mice; PW164 at the capsaicin injection site, 30 minutes post-capsaicin
  capsaicin-induced thermal sensitivity: inhibited
[1]
  IC50: > 30 µM
[2]; 0h after dosing, Mean
  Diastolic: 81
  MAP: 92
  Systolic: 114
[2]; [3]
  Diastolic: 95 and 77 and 98 and 72 and 63
  MAP: 105 and 81 and 78 and 103 and 92
  Systolic: 120 and 101 and 108 and 118 and 121
[2]; 2h after dosing, Mean
  Diastolic: 74
  MAP: 85
  Systolic: 109
[2]; [4]
  Diastolic: 75 and 64 and 68 and 76 and 85
  MAP: 86 and 76 and 79 and 92 and 93
  Systolic: 107 and 100 and 103 and 125 and 111
[2]; 8h after dosing, Mean
  Diastolic: 81
  MAP: 93
  Systolic: 119
[2]; [5]
  Diastolic: 78 and 94 and 81 and 74 and 76
  MAP: 89 (3×) and 103 and 95
  Systolic: 114 and 121 and 123 and 120 and 117
[2]; Mean
  Body weight, Pre-dose: 25.3 g
  Body weight, Terminal: 24.8 g
[2]; [6]
  Body weight, Pre-dose: 25.7 g and 27.0 g and 24.4 g (2×) and 25.0 g
  Body weight, Terminal: 24.9 g and 26.8 g and 23.9 g and 23.8 g and 24.5 g
[2]; up to 8 hours after injection
  blood pressure or body weight changes: No changes

From PMC12259270, “Sensory neuron–expressed FGF13 controls nociceptive signaling in diabetic neuropathy models” (The Journal of Clinical Investigation, 2025)
